Experimental data: US6656921B1, “Use of zinc hyaluronate against peptic ulcer” (Richter Gedeon Vegyeszeti Gyar RT., priority 1997, dated 2003)
Where “and” joins values, the source holds several entries; their conditions need not be identical. Equal values may be shown once. Marks after values point to notes of the source that are not given here.

Columns and labels:
[1] = tested on: acidified ethanol induced gastric lesion; test: Inhibition of acidified-ethanol induced gastric lesions; format: in vivo, rat; conditions: for Inhibition / Lesion length/stomach mm ± S.E.M.: 30 min before acidified ethanol
Description: Female RG-Wistar rats weighing between 120-150 g were used. Before experiments animals were fasted for 24 hours but received water ad libitum.
Experiments were carried out according to the technique similar to that described by A. Robert [Gastroenterology 77, […] (1979)].
Acidified ethanol (mixture of 50 ml of abs. ethanol and 1 ml of concentrated HCI) was used as strong irritants. Dose of acidified ethanol was 0.5 ml/100 g body weight with intragastric administration. Test compounds were given orally 30 minutes before the acidified ethanol challenge. When the duration of action of test compound was studied test material was administered 60 or 120 minutes earlier to the irritating effect induced by acidified-ethanol effect. One hour after the acidified ethanol treatment rats were sacrificed by cervical dislocation. Stomachs were removed and opened along the greater curvature and mildly washed down. The longitudinal hemorrhagic lesions were assayed by length.
ED50 value was defined as the dose that gave a 50% decrease in ulcer index.

[2] = tested on: indomethacin induced intestinal ulcer; test: Inhibition of indomethacin induced intestinal ulcer (tensile strength); format: in vivo, rat; conditions: for Effect against indomethacin induced intestinal ulceration (in words): rat, in vivo; for Tensile strength of intestinal wall as index of ulceration Hgmm ± S.E.M.: indomethacin 15 mg/kg p.o.
Description: Female, RG-Wistar, non-fasted rats weighing between 120-150 g were used. The intestinal ulcer was induced by oral administration of 15 mg/kg indomethacin. Test compound was given to animals orally 3 times over 48 hours in 24 hour equal intervals. The first introduction of test compound preceded the single indomethacin treatment by 60 minutes. Animals were killed 72 hours after the first administration of the test compound. Control animals received vehicle instead of test compound and normal rats mean non-fasted, non-treated rats. The small intestine segment from pylorus to cecum was removed, placed into 0.9% (w/v) sodium chloride solution at 37° C. and it was connected with a BP recorder through one of its ends via a polyethylene cannula. After ligating both ends of the prepartum the pressure was increased inside the intestine until air bubbles appeared at the weakened site of the intestinal wall. This pressure is expressed in Hgmm and is denoted tensile strength (TS).

[3] = tested on: acetic acid induced chronic gastric ulcer; test: Inhibition of acetic acid induced chronic gastric ulcer; format: in vivo, rat; conditions: for Ulcerated area mm^2 ± S.E.M.: day 5 to 14 after surgery
Description: Female, RG Wistar rats weighing between 120-150 g were used. Before the surgery animals were deprived of food for 24 hours but received water ad libitum. The chronic gastric ulcer was induced by the injection of 25 μl/animal of 20% (v/v) acetic acid into the gastric wall under light ether anaesthesia according to the method similar to that described by Takagi et al. (1969). The oral treatment with the test compounds was started five days after the surgery and continued in a once-a-day regimen up to the 14th day. The animals were killed on the 15th day and their stomachs were dissected. The severity of ulceration was evaluated by the measurement of the diameter of the ulcers and the area affected was calculated. The healing effect was expressed as differences in percentage between the control and test group values.

[4] = tested on: indomethacin induced gastric lesion; test: Inhibition of indomethacin induced gastric lesion; format: in vivo, rat; conditions: for ED50 (dose protecting the stomach by 50% from indomethacin): p.o.
Description: 2. Inhibition of Indomethacin Induced Gastric Lesion Female RG Wistar rats weighing between 120-150 g were used. Before the experiments animals were fasted for 24 hours but received water ad libitum. Test compounds were given orally, 30 minutes later the animals were treated subcutaneously with indomethacin at a dose of 40 mg/kg. Four hours after the irritating indomethacin administration the animals were killed by cervical dislocation. The stomachs were removed, opened along the greater curvature and the hemorrhagic lesions were counted on the glandular stomach.
ED50 value represents the dose which protects the stomach by 50 % from the damaging effect of indomethacin.

[5] = tested on: Helicobacter pylori; test: Activity against Helicobacter pylori (agar MIC); format: cell-based
Description: These experiments were performed on Helicobacter pylori strains cultivated from the gastric biopsy samples of patients suffering from various ulcers. An 1% by (w/w) solutions of De-Nol (colloidal bismuth subcitrate) was used as reference substance. An agar medium supplemented with 10% of bovine blood was employed. Plates containing no substance to be tested were used as controls. The plates inoculated were incubated at 37° C. in a gas atmosphere containing 5% of oxygen and 7-8% of carbon dioxide for 3-5 days. Minimum inhibitory concentration (MIC) value was considered to be the lowest concentration of substances totally inhibiting the growth (propagation) of well-propagating bacteria on control plates.

[6] = tested on: gastrointestinal motility; test: Gastrointestinal motility in the charcoal propulsion test; format: in vivo, rat; conditions: 100 mg/kg p.o.
Description: Experiments were performed on female, RG-Wistar rats weighing 120-140 g, which were fasted for 24 hours but received water ad libitum.
The experimental procedure was carried out according to the technique similar to that described of P. A. Janssen and A. J. Jageneau [J. Pharm. Pharmacel. 9, 381 (1957)].
Test compounds were given orally at a dose of 100 mg/kg. Control animals received physiological saline solution instead of test compounds. 30 minutes later, the 5% (w/v) charcoal suspension was administered orally at a volume of 0.5 ml/animal. 60 minutes after the charcoal treatment the animals were sacrificed by cervical dislocation. The intestine from pylorus to cecum was removed, its lengths measured along with the distance traversed by the charcoal meal.
Motility was expressed as the ratio of length of charcoal suspension to the length of the whole intestine.

[7] = 40 mg/kg p.o., 30 min before indomethacin
[8] = 80 mg/kg p.o., 30 min before indomethacin
[9] = 160 mg/kg p.o., 30 min before indomethacin

sucralfate [reference compound] was tested, and the Inhibition ([1]; 50 mg/kg p.o.) was 0%, the “Lesion length/stomach mm ± S.E.M.” value ([1]; 50 mg/kg p.o.) was 64.0 ± 25.9 mm and the Inhibition ([1]; 100 mg/kg p.o.) was 75.3%. The “Lesion length/stomach mm ± S.E.M.” value ([1]; 100 mg/kg p.o.) was 15.0 ± 5.5 mm, the Inhibition ([1]; 400 mg/kg p.o.) was 87.7% and the “Lesion length/stomach mm ± S.E.M.” value ([1]; 400 mg/kg p.o.) was 7.5 ± 3.0 mm. The “Effect against indomethacin induced intestinal ulceration (in words)” value [2] was “totally ineffective”, the “Ulcerated area mm^2 ± s.e.m.” value ([3]; 100 mg/kg p.o. once a day) was 6.7 ± 1.5 mm^2 and the “Ulcerated area mm^2 ± s.e.m.” value ([3]; 500 mg/kg p.o. once a day) was 4.3 ± 1.3* mm^2. For the same substance, the “Effect on healing %” value ([3]; 500 mg/kg p.o. once a day, ↓healing slowed down, ↑healing accelerated) was 53%, the Inhibition [4, 7] was 14.8% and the “Lesion number/stomach ± S.E.M.” value [4, 7] was 14.4 ± 4.8. For the same substance, the Inhibition [4, 8] was 62.1%, the “Lesion number/stomach ± S.E.M.” value [4, 8] was 6.4 ± 2.2 and the Inhibition [4, 9] was 82.8%. For the same substance, the “Lesion number/stomach ± S.E.M.” value [4, 9] was 2.9 ± 1.4 and the “ED50 (dose protecting the stomach by 50% from indomethacin)” value [4] was 74.9 mg/kg.
With zinc hyaluronate the “In vitro activity against Helicobacter pylori (in words)” value [5] was “commensurable with activity of De-Nol” and the MIC ([5]; strain 822/96, agar medium with 10% bovine blood, 37° C., 3-5 days) was 500 µg/mL.
“zinc hyaluronate [Zinc hyaluronate (II)]” was tested, and the “Effect on the intestinal motility (in words)” value [6] was “absence of change in activity”, the “Propulsion of charcoal suspension mm ± S.E.M.” value ([6]; 30 min before charcoal, 60 min after charcoal, listed as Zink-hyaluronate (II)) was 610 ± 3.9 mm and the “Ratio of charcoal suspension to the whole intestinal part” value ([6]; listed as Zink-hyaluronate (II)) was 0.77 ± 0.04. The Inhibition ([1]; 10 mg/kg p.o.) was 42.7%, the “Lesion length/stomach mm ± S.E.M.” value ([1]; 10 mg/kg p.o.) was 48.0 ± 10.9 mm and the Inhibition ([1]; 25 mg/kg p.o.) was 77.3%. The “Lesion length/stomach mm ± S.E.M.” value ([1]; 25 mg/kg p.o.) was 19.0 ± 4.4 mm, the Inhibition ([1]; 50 mg/kg p.o.) was 84.1% and the “Lesion length/stomach mm ± S.E.M.” value ([1]; 50 mg/kg p.o.) was 13.3 ± 4.8 mm. The Inhibition ([1]; 100 mg/kg p.o.) was 98.1%, the “Lesion length/stomach mm ± S.E.M.” value ([1]; 100 mg/kg p.o.) was 1.6 ± 0.5 mm and the “ED50 (dose giving 50% decrease in ulcer index)” value ([1]; p.o., 30 min pretreatment) was 11.1 mg/kg. For the same substance, the “Tensile strength of intestinal wall as index of ulceration Hgmm ± S.E.M.” value ([2]; 3 × 1 mg/kg p.o.) was 27.9 ± 8.9 Hgmm, the “Tensile strength of intestinal wall as index of ulceration Hgmm ± S.E.M.” value ([2]; 3 × 10 mg/kg p.o.) was 41.3 ± 10.9 Hgmm and the “Tensile strength of intestinal wall as index of ulceration Hgmm ± S.E.M.” value ([2]; 3 × 100 mg/kg p.o.) was 48.8 ± 11.3 Hgmm. The “Increase of tensile strength of intestinal wall compared to the control group” value ([2]; doses of 10 mg/kg and 100 mg/kg) was “almost three times”, the “Effect against indomethacin induced intestinal ulceration (in words)” value [2] was “had a protective effect on the intestinal wall” and the “Ulcerated area mm^2 ± S.E.M.” value ([3]; 0.01 mg/kg p.o. once a day) was 6.2 ± 1.0 mm^2. The “Ulcerated area mm^2 ± S.E.M.” value ([3]; 0.1 mg/kg p.o. once a day) was 5.8 ± 1.1 mm^2, the “Ulcerated area mm^2 ± S.E.M.” value ([3]; 1.0 mg/kg p.o. once a day) was 3.7 ± 1.6* mm^2 and 3.7 ± 0.6* mm^2 and the “Effect on healing of acetic acid induced chronic ulcer (in words)” value ([3]; rat, in vivo) was “accelerated the healing”. The Inhibition ([4]; 1.0 mg/kg p.o., 30 min before indomethacin) was 31.8%, the “Lesion number/stomach ± S.E.M.” value ([4]; 1.0 mg/kg p.o., 30 min before indomethacin 40 mg/kg s.c.) was 8.8 ± 2.1 and the Inhibition ([4]; 10.0 mg/kg p.o., 30 min before indomethacin) was 56.5%. For the same substance, the “Lesion number/stomach ± S.E.M.” value ([4]; 10.0 mg/kg p.o., 30 min before indomethacin 40 mg/kg s.c.) was 7.4 ± 1.9, the Inhibition ([4]; 100 mg/kg p.o., 30 min before indomethacin) was 78.2% and the “Lesion number/stomach ± S.E.M.” value ([4]; 100 mg/kg p.o., 30 min before indomethacin 40 mg/kg s.c.) was 3.7 ± 0.8. For the same substance, the “ED50 (dose protecting the stomach by 50% from indomethacin)” value [4] was 5.8 mg/kg.
